# Values of other authors in US10709668B2, “Sprinkle formulations of acamprosate” (priority 2015, dated 2020).
# Experiments:
# [1] = humans
# [2] = subjects with autism and fragile x syndrome (WO 2010093859)
compound,measurement,setting,value
"CC(=O)NCCCS(=O)(=O)O [acamprosate, 3-(Acetylamino)propylsulfonic acid]",Oral bioavailability,[1],about 11%
same,"Improvement in primary outcomes (CGI-I, CGI-S)",[2],marked improvements
